According to US20260256870A1, “SKIN COMPOSITION” (Eaderm Co., Ltd., priority 2019, published 2026):
Where a name gives a salt, the structure may show the parent alone. Read-outs that look alike come from different tables or passages of the source.

Assays:
[1] = system: human epidermal keratinocytes; test: Colony formation assay using human epidermal keratinocytes; assay type: cell-based
Text: To test whether COL17A1-mediated SCD maintains clonal proliferation of epidermal stem cell clones, the present inventors used a colony formation assay, which is an in vitro assay said to be the gold standard for assessing the self-renewal ability of epidermal stem cells, including cells in the tail epidermis.

COL17A1 = COL17A1 expression in human epidermal keratinocytes by high content imaging (HCS); assay type: cell-based
Procedure: The present inventors further searched for substances that induce or maintain the expression of COL17A1. Human epidermal keratinocytes were seeded in 384-well plates, cultured for 48 hours after addition of reagents, immunostained with an anti-COL17A1 antibody and a fluorescently labeled secondary antibody, and then the fluorescence intensity per cell was detected using a high content imaging system (HCS: High Content Screening). In addition to cell counting with DAPI, the expression level of COL17A1 was quantified.

[2] = Table 1, human epidermal keratinocytes, 48 hours after addition of reagents, fluorescence intensity per cell
[3] = Table 3, anticancer drugs and molecularly targeted drugs

With `CCCCc1oc2ccccc2c1C(=O)c1cc(I)c(OCCN(CC)CC)c(I)c1` [Amiodarone Hydrochloride] the “Colony area (control ratio)” value ([1]; Table 1) was “○”, the “Colony number (control ratio)” value ([1]; Table 1) was “⊚ (one double circle (⊚) indicates maintenance of 1.0-1.2-fold)” and the “COL17A1 expression level (control ratio)” value (COL17A1; [2]) was “⊚⊚ (two double circles (⊚⊚) in the COL17A1 expression level (control ratio) represent a 2.0-fold or greater increase in the expression level)”.

With `C=C1C[C@@H]2[C@H](CC[C@]3(C)C(=O)CC[C@@H]23)[C@@]2(C)C=CC(=O)C=C12` [Exemestane] the “COL17A1 expression level (control ratio)” value (COL17A1; [3]) was 0.93.

For `O=C(O)c1cccnc1Nc1cccc(C(F)(F)F)c1` [Niflumic Acid], the “COL17A1 expression level (control ratio)” value (COL17A1; [2]) was “⊚ (one double circle (⊚) represents a 1.2-fold or greater increase)”.

For `N.N.[Cl][Pt][Cl]` [Cisplatin], the “COL17A1 expression level (control ratio)” value (COL17A1; [3]) was 0.97.

With `S=c1nc[nH]c2nc[nH]c12` [Mercaptopurine] the “COL17A1 expression level (control ratio)” value (COL17A1; [3]) was 0.83.

For `c1ccc2c(c1)[I+]c1ccccc1-2` [Diphenyleneiodonium (DPI), Diphenyleneiodonium], the “Colony area (control ratio)” value ([1]; Table 1) was “○”, the “Colony number (control ratio)” value ([1]; Table 1) was “○” and the “COL17A1 expression level (control ratio)” value (COL17A1; [2]) was “⊚ (one double circle (⊚) represents a 1.2-fold or greater increase)”.

`CC(CCc1ccc(O)cc1)NCCc1ccc(O)c(O)c1` (stereo not drawn) [Dobutamine Hydrochloride] was tested, and the “Colony area (control ratio)” value ([1]; Table 1) was “⊚ (one double circle (⊚) indicates maintenance of 1.0-1.2-fold)”, the “Colony number (control ratio)” value ([1]; Table 1) was “⊚ (one double circle (⊚) indicates maintenance of 1.0-1.2-fold)” and the “COL17A1 expression level (control ratio)” value (COL17A1; [2]) was “⊚⊚ (two double circles (⊚⊚) in the COL17A1 expression level (control ratio) represent a 2.0-fold or greater increase in the expression level)”.

For Toremiphene citrate, the “COL17A1 expression level (control ratio)” value (COL17A1; [3]) was 0.94.

For `Clc1ccccc1C(c1ccccc1)(c1ccccc1)n1ccnc1` [Clotrimazole], the “COL17A1 expression level (control ratio)” value (COL17A1; [2]) was “⊚ (one double circle (⊚) represents a 1.2-fold or greater increase)”.

With `COc1ccc(C[C@H](N)C(=O)N[C@H]2[C@@H](O)[C@H](n3cnc4c(N(C)C)ncnc43)O[C@@H]2CO)cc1` [Puromycin hydrochloride] the “COL17A1 expression level (control ratio)” value (COL17A1; [3]) was 0.85.

With `COc1cccc(-c2cc(=O)c3ccccc3o2)c1N` [PD98059] the “COL17A1 expression level (control ratio)” value (COL17A1; [3]) was 0.84.

For `CN1C(=O)C(Cc2c[nH]c3ccccc23)NC1=S` (stereo not drawn) [Necrostatin-1], the “Colony area (control ratio)” value ([1]; Table 1) was “⊚ (one double circle (⊚) indicates maintenance of 1.0-1.2-fold)”, the “Colony number (control ratio)” value ([1]; Table 1) was “⊚ (one double circle (⊚) indicates maintenance of 1.0-1.2-fold)” and the “COL17A1 expression level (control ratio)” value (COL17A1; [2]) was “⊚ (one double circle (⊚) represents a 1.2-fold or greater increase)”.

In the case of `O=P1(NCCCl)OCCCN1CCCl` (stereo not drawn) [Ifosfamide], the “COL17A1 expression level (control ratio)” value (COL17A1; [3]) is reported as 0.84.

With `O=P1(N(CCCl)CCCl)NCCCO1` (stereo not drawn) [Cyclophosphamide hydrate] the “COL17A1 expression level (control ratio)” value (COL17A1) was 0.88.

In the case of `O=NN(CCCl)C(=O)NCCCl` [Carmustine], the “COL17A1 expression level (control ratio)” value (COL17A1; [3]) is reported as 0.94.

For `Fc1ccc(C(c2ccc(F)cc2)N2CCN(C/C=C/c3ccccc3)CC2)cc1` [Flunarizine Hydrochloride], the “Colony area (control ratio)” value ([1]; Table 1) was “⊚ (one double circle (⊚) indicates maintenance of 1.0-1.2-fold)”, the “Colony number (control ratio)” value ([1]; Table 1) was “⊚ (one double circle (⊚) indicates maintenance of 1.0-1.2-fold)” and the “COL17A1 expression level (control ratio)” value (COL17A1; [2]) was “⊚ (one double circle (⊚) represents a 1.2-fold or greater increase)”.

`N=C(N)NN` [Aminoguanidine] was tested, and the “Colony area (control ratio)” value ([1]; Table 1) was “○”, the “Colony number (control ratio)” value ([1]; Table 1) was “○” and the “COL17A1 expression level (control ratio)” value (COL17A1; [2]) was “○ (one circle (0) represents a 1.0-1.2-fold maintenance)”.

For `CCCCOc1ccc(CC(=O)NO)cc1` [Bufexamac], the “COL17A1 expression level (control ratio)” value (COL17A1; [2]) was “⊚ (one double circle (⊚) represents a 1.2-fold or greater increase)”.

`C[C@H]1CNCCCN1S(=O)(=O)c1cccc2cncc(F)c12` [Ripasudil] was tested, and the “Colony area (control ratio)” value ([1]; Table 1) was “⊚ (one double circle (⊚) indicates maintenance of 1.0-1.2-fold)”, the “Colony number (control ratio)” value ([1]; Table 1) was “⊚ (one double circle (⊚) indicates maintenance of 1.0-1.2-fold)” and the “COL17A1 expression level (control ratio)” value (COL17A1; [2]) was “⊚⊚ (two double circles (⊚⊚) in the COL17A1 expression level (control ratio) represent a 2.0-fold or greater increase in the expression level)”.

With `O=c1[nH]c(=O)n(C2CCCO2)cc1F` (stereo not drawn) [Tegafur] the “COL17A1 expression level (control ratio)” value (COL17A1; [3]) was 0.90.

For `O=S(=O)(c1cccc2cnccc12)N1CCCNCC1` [Fasudil (HA-1077), Fasudil], the “Colony area (control ratio)” value ([1]; Table 1) was “⊚ (one double circle (⊚) indicates maintenance of 1.0-1.2-fold)”, the “Colony number (control ratio)” value ([1]; Table 1) was “⊚ (one double circle (⊚) indicates maintenance of 1.0-1.2-fold)” and the “COL17A1 expression level (control ratio)” value (COL17A1; [2]) was “⊚⊚ (two double circles (⊚⊚) in the COL17A1 expression level (control ratio) represent a 2.0-fold or greater increase in the expression level)”.

In the case of `Nc1ccn([C@@H]2O[C@H](CO)[C@@H](O)C2(F)F)c(=O)n1` [Gemcitabine], the “COL17A1 expression level (control ratio)” value (COL17A1; [3]) is reported as 0.96.

In the case of `Cn1nnc2c(C(N)=O)ncn2c1=O` [Temozolomide], the “COL17A1 expression level (control ratio)” value (COL17A1; [3]) is reported as 0.98.

For `COc1ccc(-c2coc3cc(O)cc(O)c3c2=O)cc1` [Biochanin A], the “Colony area (control ratio)” value ([1]; Table 1) was “○”, the “Colony number (control ratio)” value ([1]; Table 1) was “○” and the “COL17A1 expression level (control ratio)” value (COL17A1; [2]) was “⊚ (one double circle (⊚) represents a 1.2-fold or greater increase)”.

For `OC1(c2ccc(Cl)c(C(F)(F)F)c2)CCN(CCCC(c2ccc(F)cc2)c2ccc(F)cc2)CC1` [Penfluridol], the “Colony area (control ratio)” value ([1]; Table 1) was “⊚ (one double circle (⊚) indicates maintenance of 1.0-1.2-fold)”, the “Colony number (control ratio)” value ([1]; Table 1) was “⊚ (one double circle (⊚) indicates maintenance of 1.0-1.2-fold)” and the “COL17A1 expression level (control ratio)” value (COL17A1; [2]) was “⊚ (one double circle (⊚) represents a 1.2-fold or greater increase)”.

With `CC(C)=CCC1=C(O)C(=O)c2ccccc2C1=O` [Lapachol] the “Colony area (control ratio)” value ([1]; Table 2) was “⊚ (one double circle (⊚) indicates maintenance of 1.0-1.2-fold)”, the “Colony number (control ratio)” value ([1]; Table 2) was “⊚ (one double circle (⊚) indicates maintenance of 1.0-1.2-fold)” and the “COL17A1 expression level (control ratio)” value (COL17A1; Table 2, human epidermal keratinocytes, 48 hours after addition of reagents) was “⊚⊚ (two double circles (⊚⊚) in the COL17A1 expression level (control ratio) represent a 2.0-fold or greater increase in the expression level)”.

With Monensin Sodium the “COL17A1 expression level (control ratio)” value (COL17A1; [2]) was “⊚ (one double circle (⊚) represents a 1.2-fold or greater increase)”.

With `CC/C(=C(\c1ccccc1)c1ccc(OCCN(C)C)cc1)c1ccccc1` [Tamoxifen citrate] the “COL17A1 expression level (control ratio)” value (COL17A1; [3]) was 0.78.

In the case of `C[C@]12C=CC(=O)C=C1CC[C@H]1[C@@H]3C[C@@H](O)[C@](O)(C(=O)CO)[C@@]3(C)C[C@H](O)[C@@]12F` [Triamcinolone], the “COL17A1 expression level (control ratio)” value (COL17A1; [2]) is reported as “⊚ (one double circle (⊚) represents a 1.2-fold or greater increase)”.

For `C[C@H]1[C@@H](O)O[C@@H]2O[C@@]3(C)CC[C@H]4[C@H](C)CC[C@@H]1[C@@]24OO3` [Artenimol], the “COL17A1 expression level (control ratio)” value (COL17A1; [2]) was “⊚ (one double circle (⊚) represents a 1.2-fold or greater increase)”.

`Nc1nc(F)nc2c1ncn2[C@@H]1O[C@H](COP(=O)(O)O)[C@@H](O)[C@@H]1O` [Fludarabine phosphate] was tested, and the “COL17A1 expression level (control ratio)” value (COL17A1; [3]) was 0.90.

With `CN(C)c1cccc(-c2c3c(=O)n(-c4ccccc4Cl)[nH]c3cc(=O)n2C)c1` [GKT137831] the “Colony area (control ratio)” value ([1]; Table 1) was “○”, the “Colony number (control ratio)” value ([1]; Table 1) was “○” and the “COL17A1 expression level (control ratio)” value (COL17A1; [2]) was “○ (one circle (0) represents a 1.0-1.2-fold maintenance)”.

For `C#C[C@]1(O)CC[C@H]2[C@@H]3CCc4cc(O)ccc4[C@H]3CC[C@@]21C` [Ethynyl Estsadiol], the “Colony area (control ratio)” value ([1]; Table 1) was “⊚ (one double circle (⊚) indicates maintenance of 1.0-1.2-fold)”, the “Colony number (control ratio)” value ([1]; Table 1) was “⊚ (one double circle (⊚) indicates maintenance of 1.0-1.2-fold)” and the “COL17A1 expression level (control ratio)” value (COL17A1; [2]) was “⊚⊚ (two double circles (⊚⊚) in the COL17A1 expression level (control ratio) represent a 2.0-fold or greater increase in the expression level)”.

`C[C@H]1C[C@H]2[C@@H]3CCC4=CC(=O)C=C[C@]4(C)[C@@]3(F)[C@@H](O)C[C@]2(C)[C@@]1(O)C(=O)CO` [Bethamethazone] was tested, and the “COL17A1 expression level (control ratio)” value (COL17A1; [2]) was “⊚⊚ (two double circles (⊚⊚) in the COL17A1 expression level (control ratio) represent a 2.0-fold or greater increase in the expression level)”.

`NC(=O)NO` [Hydroxyurea] was tested, and the “COL17A1 expression level (control ratio)” value (COL17A1; [3]) was 0.92.

With `CC(=O)c1ccc2c(c1)Nc1ccccc1S2` [ML171] the “Colony area (control ratio)” value ([1]; Table 1) was “⊚ (one double circle (⊚) indicates maintenance of 1.0-1.2-fold)”, the “Colony number (control ratio)” value ([1]; Table 1) was “⊚ (one double circle (⊚) indicates maintenance of 1.0-1.2-fold)” and the “COL17A1 expression level (control ratio)” value (COL17A1; [2]) was “○ (one circle (0) represents a 1.0-1.2-fold maintenance)”.

`CN(C)/N=N/c1[nH]cnc1C(N)=O` [Dacarbazine] was tested, and the “COL17A1 expression level (control ratio)” value (COL17A1; [3]) was 0.94.

For `Cc1ccc(-c2cc(C(F)(F)F)nn2-c2ccc(S(N)(=O)=O)cc2)cc1` [Celecoxib], the “Colony area (control ratio)” value ([1]; Table 1) was “⊚ (one double circle (⊚) indicates maintenance of 1.0-1.2-fold)”, the “Colony number (control ratio)” value ([1]; Table 1) was “⊚ (one double circle (⊚) indicates maintenance of 1.0-1.2-fold)” and the “COL17A1 expression level (control ratio)” value (COL17A1; [2]) was “⊚ (one double circle (⊚) represents a 1.2-fold or greater increase)”.

`CC(=O)O.O=c1[nH]cc(F)c(=O)[nH]1` [Fluorouracil acetate] was tested, and the “COL17A1 expression level (control ratio)” value (COL17A1; [3]) was 0.88.

In the case of `CCC(=O)O[C@H]1CC[C@H]2[C@@H]3CCC4=CC(=O)CC[C@]4(C)[C@H]3CC[C@]12C` [Testosterone propionate], the “COL17A1 expression level (control ratio)” value (COL17A1; [3]) is reported as 0.84.

With `Clc1ccc(C(c2ccccc2Cl)C(Cl)Cl)cc1` (stereo not drawn) [Mitotane] the “COL17A1 expression level (control ratio)” value (COL17A1; [3]) was 0.98.

For `Cc1c(Cl)cccc1Nc1ccccc1C(=O)O` [Tolfenamic Acid], the “COL17A1 expression level (control ratio)” value (COL17A1; [2]) was “⊚ (one double circle (⊚) represents a 1.2-fold or greater increase)”.

With `COc1ccc2c(c1)c(CC(=O)OCC(=O)O)c(C)n2C(=O)c1ccc(Cl)cc1` [Acemetacin] the “COL17A1 expression level (control ratio)” value (COL17A1; [2]) was “⊚ (one double circle (⊚) represents a 1.2-fold or greater increase)”.

With `COc1ccc(-c2cc(C(F)F)nn2-c2ccc(S(N)(=O)=O)cc2)cc1F` [Deracoxib] the “COL17A1 expression level (control ratio)” value (COL17A1; [2]) was “⊚ (one double circle (⊚) represents a 1.2-fold or greater increase)”.

In the case of `CN1C(C(=O)Nc2ccccn2)=C(O)c2sccc2S1(=O)=O` [Tenoxicam], the “COL17A1 expression level (control ratio)” value (COL17A1; [2]) is reported as “⊚ (one double circle (⊚) represents a 1.2-fold or greater increase)”.
